Structures are written as SMILES. Numbered stars: 1 amine (or outer) side, 2 acyl side, 3 side chain; on linkers, the order of the positions; unused ones are H or OH. Side chains are listed from the residue outwards. Peptide text beside a SMILES is read from it. * marks the point of attachment. C18 diacid = O=C(O)CCCCCCCCCCCCCCCCC(=O)*; γGlu = O=C(O)[C@H](CCC(=O)[*:2])N[*:1]; AEEA = NCCOCCOCC(=O)O

The data set is described as follows: Assay (II) PK i.v. minipig, in vivo half-life. On the set-up: species or system Göttingen mini-pigs. Conditions: male, Göttingen, minipig, iv, Half-life minipig, Assay (II). As for the experimental part:
An assay useful for measuring the pharmacokinetic (PK) profile of the PP peptide is the following mini-pig PK assay.
Five male Göttingen mini-pigs weighing approximately 18 to 22 kg from Ellegaard Göttingen Minipigs NS, Denmark are included in the study. The mini-pigs have two central venous catheters inserted which are used for intra venous (i.v.) dosing and blood sampling. The test compound is dissolved in 50 mM K2HPO4, 0.05% tween 80, pH=8.0 to a concentration of 180 nmol/ml. For comparison a control compound, such as human PP(1-36), may be administered. The pigs are dosed with 6 nmol test compound/kg body weight. Blood samples are taken at the following time points: pre-dose, 30 minutes, 1, 2, 4, 8, 24, 48, 72, 96, 120, 168 and 240 hours post dosing. The blood samples were collected into test tubes containing EDTA buffer for stabilization and kept on ice for max. 20 minutes before centrifugation. The centrifugation procedure to separate plasma may be: 4° C., approx. 2500 g for 10 minutes. Plasma is collected and immediately transferred to Micronic tubes stored at −20° C. until assayed.
The test compounds were assayed in plasma by Turbulent Flow Chromatography coupled to Liquid Chromatography with subsequent Tandem Mass Spectrometric Detection (TFC/LC/MS/MS). Positive mode ionization and Multiple Reaction Monitoring (MRM) of a multiple protonated species fragmented to a singly charged ion was employed for selectivity. The selectivity of the method allows multiple compounds to be quantified in one sample.
The concentrations of the test compound in samples of unknown concentration were calculated using the peak area as a function of amount. Calibration graphs based on plasma samples spiked with the analyte were constructed by regression analysis. Typical dynamic range for standard assay was 1-2000 nmol/I. The method performance was assured by co-assaying quality control (QC) samples in duplicate at three concentration levels.
Stock and working solutions of analytes were prepared in plasma and incubated by 37° C. for 1 hour.
Sample Preparation: 40.0 μl EDTA-plasma was added 160 μl 50% methanol, 1% formic acid, then vortexed and centrifuged at 16457 g at 4° C. for 20 minutes. The supernatant was transferred to a 96 well plate, plates incubated with 0.4% BSA, 37° C. for ½ hour. Injection volume was 25 μl.
The analysis was carried out on a Sciex API 3000 mass spectrometer (MDS/Sciex, Concord, ON, Canada) using a TurbolonSpray interface. The TFC/LC system consisted of two Flux Rheos 2000 quaternary pumps, a Cohesive VIM module (Cohesive Technologies, Franklin, Mass., USA) and a CTC LC/PAL auto sampler (CTC Analytics, Zingen, Switzerland). The centrifuge employed was a HettichMikro 22R (A. Hettich, Tuttlingen, Germany). For sample clean up a TurboFlow C8 column (0.5×50 mm) (Cohesive Technologies/Thermofisher) was used and the LC separation was done on a Proteo 4 μm column (2.0×50 mm) (Phenomenex, Torrance, Calif., USA). Eluents were isocratic and gradient combinations of methanol, acetonitril, Milli-Q water and formic acid.
Non-compartmental analysis (NCA): Plasma concentration-time profiles are analyzed by non-compartmental pharmacokinetics analysis (NCA) using WinNonlin Professional 5.0 (Pharsight Inc., Mountain View, Calif., USA). NCA is performed using the individual plasma concentration-time profiles from each animal.
On to `CC[C@H](C)[C@H](NC(=O)[C@H](Cc1ccc(O)cc1)NC(=O)[C@H](CCCNC(=N)N)NC(=O)[C@H](CCCNC(=N)N)NC(=O)[C@H](CCCCNC(=O)COCCOCCNC(=O)COCCOCCNC(=O)CC[C@H](NC(=O)CCCCCCCCCCCCCCCCC(=O)O)C(=O)O)NC(=O)[C@H](CC(=O)O)NC(=O)[C@H](C)NC(=O)[C@H](C)NC(=O)[C@H](Cc1ccc(O)cc1)NC(=O)[C@H](CCC(N)=O)NC(=O)[C@H](C)NC(=O)[C@H](CCSC)NC(=O)[C@H](CCC(N)=O)NC(=O)[C@H](CCC(=O)O)NC(=O)[C@@H]1CCCN1C(=O)[C@@H](NC(=O)[C@H](C)NC(=O)[C@H](CC(N)=O)NC(=O)[C@H](CC(=O)O)NC(=O)CNC(=O)[C@@H]1CCCN1C(=O)[C@H](Cc1ccc(O)cc1)NC(=O)[C@@H](NC(=O)[C@@H]1CCCN1C(=O)[C@H](CCC(=O)O)NC(=O)[C@@H](N)CC(C)C)C(C)C)[C@@H](C)O)C(=O)N[C@@H](CC(N)=O)C(=O)N[C@@H](CCSC)C(=O)N[C@@H](CC(C)C)C(=O)N[C@H](C(=O)N[C@@H](CCCNC(=N)N)C(=O)N1CCC[C@H]1C(=O)N[C@@H](CCCNC(=N)N)C(=O)N[C@@H](Cc1ccc(O)cc1)C(N)=O)[C@@H](C)O` [Compound AR] (H-LEPVYPGDNATPEQMAQYAADK([AEEA-AEEA-γGlu-C18 diacid])RRYINMLTRPRY-NH2; N-terminus and C-terminus assumed), for which the half-life (as a rule, the time needed for the level to fall by half in the phase considered) is 1.29 days.
On to `CC[C@H](C)[C@H](NC(=O)[C@H](Cc1ccc(O)cc1)NC(=O)[C@H](CCCNC(=N)N)NC(=O)[C@H](CCCNC(=N)N)NC(=O)[C@H](CC(C)C)NC(=O)[C@H](CC(=O)O)NC(=O)[C@H](C)NC(=O)[C@H](C)NC(=O)[C@H](Cc1ccc(O)cc1)NC(=O)[C@H](CCC(N)=O)NC(=O)[C@H](C)NC(=O)[C@H](CCSC)NC(=O)[C@H](CCC(N)=O)NC(=O)[C@H](CCC(=O)O)NC(=O)[C@@H]1CCCN1C(=O)[C@@H](NC(=O)[C@H](C)NC(=O)[C@H](CC(N)=O)NC(=O)[C@H](CC(=O)O)NC(=O)CNC(=O)[C@@H]1CCCN1C(=O)[C@H](Cc1ccc(O)cc1)NC(=O)[C@@H](NC(=O)[C@@H]1CCCN1C(=O)[C@H](CCC(=O)O)NC(=O)[C@H](CC(C)C)NC(=O)[C@@H]1CCCN1)C(C)C)[C@@H](C)O)C(=O)N[C@@H](CC(N)=O)C(=O)N[C@@H](CCSC)C(=O)N[C@@H](CC(C)C)C(=O)N[C@H](C(=O)N[C@@H](CCCNC(=N)N)C(=O)N[C@@H](CCCCNC(=O)COCCOCCNC(=O)COCCOCCNC(=O)CC[C@H](NC(=O)CCCCCCCCCCCCCCCCC(=O)O)C(=O)O)C(=O)N[C@@H](CCCNC(=N)N)C(=O)N[C@@H](Cc1ccc(O)cc1)C(N)=O)[C@@H](C)O` [Compound A] (H-PLEPVYPGDNATPEQMAQYAADLRRYINMLTRK([AEEA-AEEA-γGlu-C18 diacid])RY-NH2; N-terminus and C-terminus assumed), for which the half-life was 4.12 days.
Turning to `CC[C@H](C)[C@H](NC(=O)[C@H](Cc1ccc(O)cc1)NC(=O)[C@H](CCCNC(=N)N)NC(=O)[C@H](CCCNC(=N)N)NC(=O)[C@H](CC(C)C)NC(=O)[C@H](CC(=O)O)NC(=O)[C@H](C)NC(=O)[C@H](C)NC(=O)[C@H](Cc1ccc(O)cc1)NC(=O)[C@H](CCC(N)=O)NC(=O)[C@H](CCCCNC(=O)COCCOCCNC(=O)COCCOCCNC(=O)CC[C@H](NC(=O)CCCCCCCCCCCCCCCCC(=O)O)C(=O)O)NC(=O)[C@H](CCSC)NC(=O)[C@H](CCC(N)=O)NC(=O)[C@H](CCC(=O)O)NC(=O)[C@@H]1CCCN1C(=O)[C@@H](NC(=O)[C@H](C)NC(=O)[C@H](CC(N)=O)NC(=O)[C@H](CC(=O)O)NC(=O)CNC(=O)[C@@H]1CCCN1C(=O)[C@H](Cc1ccc(O)cc1)NC(=O)[C@@H](NC(=O)[C@@H]1CCCN1C(=O)[C@H](CCC(=O)O)NC(=O)[C@H](CC(C)C)NC(=O)[C@@H]1CCCN1)C(C)C)[C@@H](C)O)C(=O)N[C@@H](CC(N)=O)C(=O)N[C@@H](CCSC)C(=O)N[C@@H](CC(C)C)C(=O)N[C@H](C(=O)N[C@@H](CCCNC(=N)N)C(=O)N1CCC[C@H]1C(=O)N[C@@H](CCCNC(=N)N)C(=O)N[C@@H](Cc1ccc(O)cc1)C(N)=O)[C@@H](C)O` [Compound P] (H-PLEPVYPGDNATPEQMK([AEEA-AEEA-γGlu-C18 diacid])QYAADLRRYINMLTRPRY-NH2; N-terminus and C-terminus assumed), the half-life is 2.96 days.
In the case of `CC[C@H](C)[C@H](NC(=O)[C@H](Cc1ccc(O)cc1)NC(=O)[C@H](CCCNC(=N)N)NC(=O)[C@H](CCCNC(=N)N)NC(=O)[C@H](CC(C)C)NC(=O)[C@H](CC(=O)O)NC(=O)[C@H](C)NC(=O)[C@H](C)NC(=O)[C@H](Cc1ccc(O)cc1)NC(=O)[C@H](CCC(N)=O)NC(=O)[C@H](C)NC(=O)[C@H](CCSC)NC(=O)[C@H](CCC(N)=O)NC(=O)[C@H](CCC(=O)O)NC(=O)[C@@H]1CCCN1C(=O)[C@@H](NC(=O)[C@H](C)NC(=O)[C@H](CC(N)=O)NC(=O)[C@H](CC(=O)O)NC(=O)CNC(=O)[C@@H]1CCCN1C(=O)[C@H](Cc1ccc(O)cc1)NC(=O)[C@@H](NC(=O)[C@@H]1CCCN1C(=O)[C@H](CCCCNC(=O)COCCOCCNC(=O)COCCOCCNC(=O)CC[C@H](NC(=O)CCCCCCCCCCCCCCCCC(=O)O)C(=O)O)NC(=O)[C@@H](N)CC(C)C)C(C)C)[C@@H](C)O)C(=O)N[C@@H](CC(N)=O)C(=O)N[C@@H](CCSC)C(=O)N[C@@H](CC(C)C)C(=O)N[C@H](C(=O)N[C@@H](CCCNC(=N)N)C(=O)N1CCC[C@H]1C(=O)N[C@@H](CCCNC(=N)N)C(=O)N[C@@H](Cc1ccc(O)cc1)C(N)=O)[C@@H](C)O` [BL], the half-life is 2.17 days.
On to `CC[C@H](C)[C@H](NC(=O)[C@H](Cc1ccc(O)cc1)NC(=O)[C@H](CCCNC(=N)N)NC(=O)[C@H](CCCNC(=N)N)NC(=O)[C@H](CC(C)C)NC(=O)[C@H](CC(=O)O)NC(=O)[C@H](C)NC(=O)[C@H](CCCCNC(=O)COCCOCCNC(=O)COCCOCCNC(=O)CC[C@H](NC(=O)CCCCCCCCCCCCCCCCC(=O)O)C(=O)O)NC(=O)[C@H](Cc1ccc(O)cc1)NC(=O)[C@H](CCC(N)=O)NC(=O)[C@H](C)NC(=O)[C@H](CCSC)NC(=O)[C@H](CCC(N)=O)NC(=O)[C@H](CCC(=O)O)NC(=O)[C@@H]1CCCN1C(=O)[C@@H](NC(=O)[C@H](C)NC(=O)[C@H](CC(N)=O)NC(=O)[C@H](CC(=O)O)NC(=O)CNC(=O)[C@@H]1CCCN1C(=O)[C@H](Cc1ccc(O)cc1)NC(=O)[C@@H](NC(=O)[C@@H]1CCCN1C(=O)[C@H](CCC(=O)O)NC(=O)[C@@H](N)CC(C)C)C(C)C)[C@@H](C)O)C(=O)N[C@@H](CC(N)=O)C(=O)N[C@@H](CCSC)C(=O)N[C@@H](CC(C)C)C(=O)N[C@H](C(=O)N[C@@H](CCCNC(=N)N)C(=O)N1CCC[C@H]1C(=O)N[C@@H](CCCNC(=N)N)C(=O)N[C@@H](Cc1ccc(O)cc1)C(N)=O)[C@@H](C)O` [Compound AU] (H-LEPVYPGDNATPEQMAQYK([AEEA-AEEA-γGlu-C18 diacid])ADLRRYINMLTRPRY-NH2; N-terminus and C-terminus assumed), for which the half-life is 2.46 days.
As for `CC[C@H](C)[C@H](NC(=O)[C@H](Cc1ccc(O)cc1)NC(=O)[C@H](CCCNC(=N)N)NC(=O)[C@H](CCCNC(=N)N)NC(=O)[C@H](CC(C)C)NC(=O)[C@H](CC(=O)O)NC(=O)[C@H](C)NC(=O)[C@H](C)NC(=O)[C@H](Cc1ccc(O)cc1)NC(=O)[C@H](CCC(N)=O)NC(=O)[C@H](C)NC(=O)[C@H](CCSC)NC(=O)[C@H](CCC(N)=O)NC(=O)[C@H](CCC(=O)O)NC(=O)[C@H](CCCCNC(=O)COCCOCCNC(=O)COCCOCCNC(=O)CC[C@H](NC(=O)CCCCCCCCCCCCCCCCC(=O)O)C(=O)O)NC(=O)[C@@H](NC(=O)[C@H](C)NC(=O)[C@H](CC(N)=O)NC(=O)[C@H](CC(=O)O)NC(=O)CNC(=O)[C@@H]1CCCN1C(=O)[C@H](Cc1ccc(O)cc1)NC(=O)[C@@H](NC(=O)[C@@H]1CCCN1C(=O)[C@H](CCC(=O)O)NC(=O)[C@@H](N)CC(C)C)C(C)C)[C@@H](C)O)C(=O)N[C@@H](CC(N)=O)C(=O)N[C@@H](CCSC)C(=O)N[C@@H](CC(C)C)C(=O)N[C@H](C(=O)N[C@@H](CCCNC(=N)N)C(=O)N1CCC[C@H]1C(=O)N[C@@H](CCCNC(=N)N)C(=O)N[C@@H](Cc1ccc(O)cc1)C(N)=O)[C@@H](C)O` [Compound BB] (H-LEPVYPGDNATK([AEEA-AEEA-γGlu-C18 diacid])EQMAQYAADLRRYINMLTRPRY-NH2; N-terminus and C-terminus assumed), the half-life was 0.792 days.
